# Source: patent publication US20260250322A1, “NEW PEPTIDES AS SELECTIVE IL-23 RECEPTOR INHIBITORS” (SANOFI, priority 2023, published 2026)
# Bridge positions count the residues as written; N and C are the ends. Square brackets hold non-standard residues; d marks the D form. Peptide text beside a SMILES is read from it. Trp(1-Me) = Cn1cc(C[C@H](N)C(=O)O)c2ccccc21; 1Nal = N[C@@H](Cc1cccc2ccccc12)C(=O)O; 2Nal = N[C@@H](Cc1ccc2ccccc2c1)C(=O)O; AEF = NCCOc1ccc(C[C@H](N)C(=O)O)cc1; Orn = NCCC[C@H](N)C(=O)O; Aib = CC(C)(N)C(=O)O
# Columns and labels:
# [1] = system: IL-23 induced STAT3 signaling; assay: Inhibition of IL-23 induced STAT3 signaling in HEK-Blue IL-23 cells (SEAP reporter); format: cell-based; details: human IL-23 0.25 ng/ml, read-out: Inhibition of IL-23 induced pSTAT3 (IC50 nM)
# Source text: HEK-Blue™ IL-23 cells (Invivogen) are designed for the detection of bioactive human (hIL-23) and murine IL-23 (mIL-23) by monitoring the activation of the STAT3 pathway. Binding of IL-23 to its receptor on the surface of HEK-Blue™ IL-23 cells triggers a signaling cascade leading to the activation of STAT3 and the subsequent production of secreted embryonic alkaline phosphatase (SEAP). This can be readily assessed using QUANTI-Blue™ Solution, a SEAP detection reagent.
# HEK-Blue™ IL-23 cells were cultured as described by Invivogen.
# On the first day of assay 10 μL of the HEK-Blue IL-23 cell suspension (final concentration: 10,000 cells/well) and 10 μl of serially diluted compound solutions were dispensed into a 384-well assay plate. After pre-incubation of the reaction mixtures at 37° C./5% CO2/95% humidity for 60 minutes, 10 μl of the humanIL-23 cytokine (final concentration: 0.25 ng/ml) was added to each well for the STAT3 signaling activation. The plate was incubated overnight at 37° C./5% CO2/95% humidity.
# On the second day 20 μl per well of Quanti-Blue detection solution (prepared according to the manufacture instruction) was dispensed into a new 384-well plate and followed by the transfer of 5 μl supernatant of the overnight incubated cell/sample mixtures. After incubation of 45 min at room temperature signals were measured with PHERAstar (BMG) at OD 620-655 nm.
# Dose response data were fitted with XLfit.
# human IL-23R = biological target: T1, human IL-23R (Homo sapiens, UniProt Q5VWK5); assay: Human ELISA IL-23/IL-23R binding inhibition; details: human IL-23 coated, recombinant human IL-23R-Fc chimera
# T1 sequence (Q5VWK5 24-355 limits assumed): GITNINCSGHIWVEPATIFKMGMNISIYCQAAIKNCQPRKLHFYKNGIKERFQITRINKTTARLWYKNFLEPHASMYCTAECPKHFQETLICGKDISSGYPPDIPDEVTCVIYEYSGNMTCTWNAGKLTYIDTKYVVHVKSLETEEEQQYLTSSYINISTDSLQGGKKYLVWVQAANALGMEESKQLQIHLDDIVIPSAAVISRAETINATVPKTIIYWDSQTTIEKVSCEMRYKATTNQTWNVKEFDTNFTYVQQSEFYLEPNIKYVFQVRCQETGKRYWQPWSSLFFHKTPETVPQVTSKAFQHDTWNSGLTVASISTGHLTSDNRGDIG
# Method: Antagonism of peptide compounds for human interleukin-23 receptor inhibitors, was determined by an ELISA assay.
# A 384-well plate was coated with 50 μl/well of human IL-23 at a final concentration of 1 μg/ml and incubated overnight at 4° C. The wells were washed 3 times with 80 μl wash buffer and blocked with 80 μl blocking buffer for 60 minutes at room temperature and washed again. 20 μl of serially diluted test peptides was added to each well and subsequently 20 μl of recombinant human IL-23R-Fc chimera at final concentration of 0.1 μg/ml. The plate was incubated for 60 minutes at room temperature. After the wells were washed, bound IL-23R-Fc was detected with goat anti-hu-lgG1-HRP antibody. Signals were visualized with QuantaBlu Fluorogenic Peroxidase Substrate.
# [2] = Chemical stability (relative purity loss) of peptide compounds in buffer formulations; format: physicochemical
# Method: Purity of a compound batch was determined through UHPLC/MS prior to chemical stability measurement using Method A.
# For stability assessment, the target concentration was 300 μM pure compound. Therefore, solutions from solid samples were prepared in the following buffer systems with a concentration of ~300 µM compound based on the previously determined % purity. The solid samples were obtained by drying down aliquots of a freshly prepared acetonitrile stock solution using a THERMO SPEEDVAC vacuum centrifuge. The dry down time was 3 hours.
# The following buffer systems were applied: • Solubility buffer system A) 100 mM phosphate buffer pH 7.4. • Solubility buffer system B) 100 mM phosphate buffer pH 6.5. • Solubility buffer system C) 100 mM HCl pH 1.2.
# Prepared solutions were filtered through […] pore size and filled into sterilized glass containers under laminar flow conditions.
# […] After this time course, the samples were centrifuged for 15 min at 2500 RCF. Then 1.5 μl of the undiluted supernatant were analysed with UHPLC-UV.
# The chemical stability was rated through the relative loss of purity calculated by the equation:
# [(purity after 0 hours at 37° C.)(purity after 24 hours at 37° C.)]/(purity after 0 hours at 37° C.)]*100%.
# The purity is calculated as [(peak area peptide)/(total peak area)]*100%.
# Buffer composition: 100 mM HCl pH 1.2, 100 mM phosphate buffer pH 6.5, 100 mM phosphate buffer pH 7.4
# [3] = pH 6.5 (100 mM phosphate buffer)
# [4] = pH 7.4 (100 mM phosphate buffer)
smiles,measurement,setting,value
COc1ccc(C[C@@H]2NC(=O)[C@H](CC(C)C)NC(=O)[C@H](CCC(N)=O)NC(=O)[C@H](Cc3c[nH]c4ccccc34)NC(=O)[C@H]([C@@H](C)O)NC(=O)[C@H](CC(N)=O)NC(=O)[C@H](NC(C)=O)CCCCNC(=O)C[C@@H](C(=O)N[C@@H](CC(N)=O)C(=O)N[C@@H](CC(N)=O)C(N)=O)NC(=O)C(C)(C)NC(=O)[C@H](Cc3ccc4ccccc4c3)NC2=O)cc1 [compound 1] (Ac-[dK]NTWQLY(Me)[2Nal][Aib]DNN-NH2; lactam 1-10),IC50,[1],334 nM
same,IC50,human IL-23R,0.63 nM
COc1ccc(C[C@@H]2NC(=O)[C@H](C)NC(=O)[C@H](CCC(N)=O)NC(=O)[C@H](Cc3c[nH]c4ccccc34)NC(=O)[C@H]([C@@H](C)O)NC(=O)[C@H](CC(N)=O)NC(=O)[C@H](NC(C)=O)CCCCNC(=O)C[C@@H](C(=O)N[C@@H](CC(N)=O)C(=O)N[C@@H](CC(N)=O)C(N)=O)NC(=O)C(C)(C)NC(=O)[C@H](Cc3ccc4ccccc4c3)NC2=O)cc1 [compound 2] (Ac-[dK]NTWQAY(Me)[2Nal][Aib]DNN-NH2; lactam 1-10),IC50,[1],234 nM
same,IC50,human IL-23R,0.69 nM
CC(=O)N[C@@H]1CCCCNC(=O)C[C@@H](C(=O)N[C@@H](CC(N)=O)C(=O)N[C@@H](CC(N)=O)C(N)=O)NC(=O)C(C)(C)NC(=O)[C@H](Cc2ccc3ccccc3c2)NC(=O)[C@H](Cc2ccc(O)cc2)NC(=O)[C@H](CCCNC(=N)N)NC(=O)[C@H](CCC(N)=O)NC(=O)[C@H](Cc2c[nH]c3ccccc23)NC(=O)[C@H]([C@@H](C)O)NC(=O)[C@H](CC(N)=O)NC1=O [compound 4] (Ac-[dK]NTWQRY[2Nal][Aib]DNN-NH2; lactam 1-10),IC50,[1],339 nM
same,Conc. [mg/ml] 0 h,[2]; pH 1.2 (100 mM HCl),1.4 mg/mL
same,Conc. [mg/ml] 24 h 37° C.,[2]; pH 1.2 (100 mM HCl),1.0 mg/mL
same,Mass Balance [%] 24 h 37° C.,[2]; pH 1.2 (100 mM HCl),−2.3%
same,Relative Purity Loss [%] 24 h 37° C.,[2]; pH 1.2 (100 mM HCl),22.9%
same,Conc. [mg/ml] 0 h,[2]; [3],1.4 mg/mL
same,Conc. [mg/ml] 24 h 37° C.,[2]; [3],1.3 mg/mL
same,Mass Balance [%] 24 h 37° C.,[2]; [3],−4.6%
same,Relative Purity Loss [%] 24 h 37° C.,[2]; [3],0.7%
same,Conc. [mg/ml] 0 h,[2]; [4],1.4 mg/mL
same,Conc. [mg/ml] 24 h 37° C.,[2]; [4],1.3 mg/mL
same,Mass Balance [%] 24 h 37° C.,[2]; [4],−2.2%
same,Relative Purity Loss [%] 24 h 37° C.,[2]; [4],2.7%
COc1ccc(C[C@@H]2NC(=O)[C@H](CCCNC(=N)N)NC(=O)[C@H](CCC(N)=O)NC(=O)[C@H](Cc3c[nH]c4ccccc34)NC(=O)[C@H]([C@@H](C)O)NC(=O)[C@H](CC(N)=O)NC(=O)[C@H](NC(C)=O)CCCCNC(=O)CC[C@@H](C(=O)N[C@@H](CC(N)=O)C(=O)N[C@@H](CC(N)=O)C(N)=O)NC(=O)C(C)(C)NC(=O)[C@H](Cc3ccc4ccccc4c3)NC2=O)cc1 [compound 5] (Ac-[dK]NTWQRY(Me)[2Nal][Aib]ENN-NH2; lactam 1-10),IC50,[1],432 nM
same,IC50,human IL-23R,1.95 nM
COc1ccc(C[C@@H]2NC(=O)[C@H](CCCNC(=N)N)NC(=O)[C@H](CCC(N)=O)NC(=O)[C@H](Cc3c[nH]c4ccccc34)NC(=O)[C@H]([C@@H](C)O)NC(=O)[C@H](CC(N)=O)NC(=O)[C@@H](NC(C)=O)CCCCNC(=O)C[C@@H](C(=O)N[C@@H](CC(N)=O)C(=O)N[C@@H](CC(N)=O)C(N)=O)NC(=O)C(C)(C)NC(=O)[C@H](Cc3cccc4ccccc34)NC2=O)cc1 [compound 9] (Ac-KNTWQRY(Me)[1Nal][Aib]DNN-NH2; lactam 1-10),IC50,[1],1610 nM
same,Conc. [mg/ml] 0 h,[2]; pH 1.2 (100 mM HCl),1.5 mg/mL
same,Conc. [mg/ml] 24 h 37° C.,[2]; pH 1.2 (100 mM HCl),1.1 mg/mL
same,Mass Balance [%] 24 h 37° C.,[2]; pH 1.2 (100 mM HCl),−1.9%
same,Relative Purity Loss [%] 24 h 37° C.,[2]; pH 1.2 (100 mM HCl),22.3%
same,Conc. [mg/ml] 0 h,[2]; [3],1.2 mg/mL
same,Conc. [mg/ml] 24 h 37° C.,[2]; [3],1.2 mg/mL
same,Mass Balance [%] 24 h 37° C.,[2]; [3],−1.8%
same,Relative Purity Loss [%] 24 h 37° C.,[2]; [3],1.2%
same,Conc. [mg/ml] 0 h,[2]; [4],1.5 mg/mL
same,Conc. [mg/ml] 24 h 37° C.,[2]; [4],1.4 mg/mL
same,Mass Balance [%] 24 h 37° C.,[2]; [4],−3.2%
same,Relative Purity Loss [%] 24 h 37° C.,[2]; [4],2.6%
COc1ccc(C[C@@H]2NC(=O)[C@H](CCCNC(=N)N)NC(=O)[C@H](CCC(N)=O)NC(=O)[C@H](Cc3cn(C)c4ccccc34)NC(=O)[C@H]([C@@H](C)O)NC(=O)[C@H](CC(N)=O)NC(=O)[C@H](NC(C)=O)CCCCNC(=O)C[C@@H](C(=O)N[C@@H](CC(N)=O)C(=O)N[C@@H](CC(N)=O)C(N)=O)NC(=O)[C@H](CCCCNC(C)=O)NC(=O)[C@H](Cc3ccc4ccccc4c3)NC2=O)cc1 [compound 10] (Ac-[dK]NT[Trp(1-Me)]QRY(Me)[2Nal]K(Ac)DNN-NH2; lactam 1-10),IC50,[1],1440 nM
same,IC50,human IL-23R,3.6 nM
COc1ccc(C[C@@H]2NC(=O)[C@H](CCCNC(=N)N)NC(=O)[C@H](CCC(N)=O)NC(=O)[C@H](Cc3c[nH]c4ccccc34)NC(=O)[C@H]([C@@H](C)O)NC(=O)[C@H](CC(N)=O)NC(=O)[C@H](NC(C)=O)CC(=O)NCCCC[C@@H](C(=O)N[C@@H](CC(N)=O)C(=O)N[C@@H](CC(N)=O)C(N)=O)NC(=O)C(C)(C)NC(=O)[C@H](Cc3ccc4ccccc4c3)NC2=O)cc1 [compound 12] (Ac-[dD]NTWQRY(Me)[2Nal][Aib]KNN-NH2; lactam 1-10),IC50,[1],6590 nM
same,IC50,human IL-23R,14.9 nM
COc1ccc(C[C@@H]2NC(=O)[C@H](CCCNC(=N)N)NC(=O)[C@H](CCC(N)=O)NC(=O)[C@H](Cc3c[nH]c4ccccc34)NC(=O)[C@H]([C@@H](C)O)NC(=O)[C@H](CC(N)=O)NC(=O)[C@H](NC(C)=O)CCCCNC(=O)C[C@@H](C(=O)N[C@@H](CC(N)=O)C(=O)N[C@@H](CC(N)=O)C(N)=O)NC(=O)C(C)(C)NC(=O)[C@H](Cc3ccc4ccccc4c3)NC2=O)cc1 [compound 15] (Ac-[dK]NTWQRY(Me)[2Nal][Aib]DNN-NH2; lactam 1-10),IC50,[1],426 nM
same,IC50,human IL-23R,1.04 nM
COc1ccc(C[C@@H]2NC(=O)[C@H](CCCNC(=N)N)NC(=O)[C@H](CCC(N)=O)NC(=O)[C@H](Cc3c[nH]c4ccccc34)NC(=O)[C@H]([C@@H](C)O)NC(=O)[C@H](CC(N)=O)NC(=O)[C@H](NC(C)=O)CCCCNC(=O)C[C@@H](C(=O)N[C@@H](CC(N)=O)C(=O)N[C@@H](CC(N)=O)C(N)=O)NC(=O)[C@H](CCC(N)=O)NC(=O)[C@H](Cc3ccc4ccccc4c3)NC2=O)cc1 [compound 30] (Ac-[dK]NTWQRY(Me)[2Nal]QDNN-NH2; lactam 1-10),IC50,[1],6050 nM
CC(=O)N[C@H]1CCCNC(=O)CC[C@@H](C(=O)N[C@@H](CC(N)=O)C(=O)N[C@@H](CC(N)=O)C(N)=O)NC(=O)C(C)(C)NC(=O)[C@H](Cc2ccc3ccccc3c2)NC(=O)[C@H](Cc2ccc(OCCN)cc2)NC(=O)[C@H](CCCNC(=N)N)NC(=O)[C@H](CCC(N)=O)NC(=O)[C@H](Cc2c[nH]c3ccccc23)NC(=O)[C@H]([C@@H](C)O)NC(=O)[C@H](CC(N)=O)NC1=O [compound 38] (Ac-[Orn]NTWQR[AEF][2Nal][Aib]ENN-NH2; lactam 1-10),IC50,[1],1570 nM
